# Reference: PubChem BioAssay (NCI)
#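 Cultured in 96-well plates, cells were exposed to test compound for 48 hours across five concentrations. TGI marks complete inhibition of growth.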
# Tested on: SNB-19 CNS
# Assay: DTP human tumour cell line panel, 48 h
row,Compound,TGI
1,CC(C)(C)[Si](C)(C)O[C@@H](C(=O)OC1C=CCCC1)[C@@H](NC(=O)c1ccccc1)c1ccccc1 (stereo partly drawn),> 100 µM
2,Cc1oc2c(c1C)S(=O)(=O)C(C#N)=C(c1ccccc1)N2,> 100 µM
3,O=C1c2ccccc2C(O)(C(=O)O)C1(O)CC=C(Cl)Cl (stereo not drawn),> 78.9 µM
4,CC(=O)O[C@@H]1CC[C@@]2(C)C(CC[C@H]3[C@@H]4CC[C@H]([C@H](C)CCc5nc6ccc(C)cc6[nH]5)[C@@]4(C)CC[C@@H]32)C1 (stereo partly drawn),> 100 µM
5,COc1cccc(OC/C(N=Cc2cccnc2)=N/NC(=O)c2ccncc2)c1,> 100 µM
6,C/C1=C/C(C)CC(C)OC(=O)C(C)NC(=O)C(Cc2ccc(O)c(I)c2)N(C)C(=O)CNC(=O)C(C)C1 (stereo not drawn),> 100 µM
7,Cc1ccc(-n2cnc3c(N)nc(N)nc32)cc1,> 100 µM
8,CO[C@H]1c2cccc3cccc(c23)[C@@H]1n1[nH]c(=O)n(C(C)(C)C)c1=O,> 100 µM
9,CCCCCCCCCCCCCCCCCCNc1ccn(C2OC(COP(=O)(O)OC3CC(n4cc(F)c(=O)[nH]c4=O)OC3COP(=O)(O)OCC3OC(n4ccc(N)nc4=O)C(O)C3O)C(O)C2O)c(=O)n1 (stereo not drawn),> 57.9 µM

# Tested on: UACC-257 melanoma
# Assay: DTP human tumour cell line panel, 48 h
row,Compound,TGI
1,Nc1nc(N)c2cc(Sc3ccc4nc(N)nc(N)c4c3)ccc2n1,> 100 µM
2,N#CC(C#N)N=Cc1ccncc1,> 100 µM
3,COc1ccc2c(c1)/C(=C\c1c(C)nc3n1CCS3)C(=O)N2,> 100 µM
4,COC(=O)C1=C(O)C(C(=O)OC)[C@]2(O)[C@H](C(=O)OC)[C@H]1C[C@@H](c1ccc(F)cc1)[C@H]2C(=O)OC (stereo partly drawn),41.9 µM
5,CCN(CC)c1cc2c3c(c1)CCCN3CCC2,> 10 µM
6,CN(C)C=C1C(=O)c2c(Br)sc(Br)c2C1=O,33 µM
7,CC(=O)O[C@H]1CC[C@H]2[C@@H]3CCC4C(C)=NNC(=O)C4[C@H]3CC[C@]12C (stereo partly drawn),> 100 µM
8,COc1cc2c[n+](C)c3c4cc5c(cc4ccc3c2cc1OC)OCO5,> 59.8 µM
9,O=c1[nH]c(C23CC4CC(CC(C4)C2)C3)cc2c1c(=O)oc1ccccc12,> 76.2 µM
10,CCN(CC)C(=C(C(Cl)=C(Cl)Cl)[N+](=O)[O-])N(CC)CC,> 100 µM
11,O=C1C(=O)c2c(oc(=O)c3ccccc23)-c2ccccc21,> 25 µM
12,CCOC(=O)C(C(=O)OCC)=C1NC2(c3ccccc3Nc3ccc(C)cc32)C(C#N)S1 (stereo not drawn),45.6 µM
13,CN1CCC2(CC1)SC[C@H]1C(=O)N(c3ccc(Cl)cc3)C(=O)N12,> 100 µM
14,CC(C)=CCC[C@@H](C)C1=C(O)C(O)C(C)=C2N=C(c3ccccc3)C(=O)OC21 (stereo partly drawn),> 25 µM
15,Cc1cc([C@H](C#N)c2nc3ccccc3[nH]2)nc(Cl)n1,71.4 µM
16,CC(C)(C)[Si](C)(C)O[C@@H](C(=O)OC1C=CCCC1)[C@@H](NC(=O)c1ccccc1)c1ccccc1 (stereo partly drawn),> 100 µM
17,Cc1oc2c(c1C)S(=O)(=O)C(C#N)=C(c1ccccc1)N2,> 100 µM
18,O=C1c2ccccc2C(O)(C(=O)O)C1(O)CC=C(Cl)Cl (stereo not drawn),> 125 µM
19,CC(=O)O[C@@H]1CC[C@@]2(C)C(CC[C@H]3[C@@H]4CC[C@H]([C@H](C)CCc5nc6ccc(C)cc6[nH]5)[C@@]4(C)CC[C@@H]32)C1 (stereo partly drawn),> 100 µM
20,COc1cccc(OC/C(N=Cc2cccnc2)=N/NC(=O)c2ccncc2)c1,> 100 µM
21,C/C1=C/C(C)CC(C)OC(=O)C(C)NC(=O)C(Cc2ccc(O)c(I)c2)N(C)C(=O)CNC(=O)C(C)C1 (stereo not drawn),5.97 µM
22,Cc1ccc(-n2cnc3c(N)nc(N)nc32)cc1,> 100 µM
23,CC12CCC3[C@@H](CC3(C)C)C(O)(CCC1=O)C2 (stereo partly drawn),> 100 µM
24,CO[C@H]1c2cccc3cccc(c23)[C@@H]1n1[nH]c(=O)n(C(C)(C)C)c1=O,> 100 µM
25,CCCCCCCCCCCCCCCCCCNc1ccn(C2OC(COP(=O)(O)OC3CC(n4cc(F)c(=O)[nH]c4=O)OC3COP(=O)(O)OCC3OC(n4ccc(N)nc4=O)C(O)C3O)C(O)C2O)c(=O)n1 (stereo not drawn),> 57.3 µM

# Tested on: SN12C renal
# Assay: DTP human tumour cell line panel, 48 h
row,Compound,TGI
1,Nc1nc(N)c2cc(Sc3ccc4nc(N)nc(N)c4c3)ccc2n1,> 100 µM
2,N#CC(C#N)N=Cc1ccncc1,> 100 µM
3,COc1ccc2c(c1)/C(=C\c1c(C)nc3n1CCS3)C(=O)N2,73.8 µM
4,COC(=O)C1=C(O)C(C(=O)OC)[C@]2(O)[C@H](C(=O)OC)[C@H]1C[C@@H](c1ccc(F)cc1)[C@H]2C(=O)OC (stereo partly drawn),26.3 µM
5,CCN(CC)c1cc2c3c(c1)CCCN3CCC2,> 10 µM
6,CN(C)C=C1C(=O)c2c(Br)sc(Br)c2C1=O,> 100 µM
7,CC(=O)O[C@H]1CC[C@H]2[C@@H]3CCC4C(C)=NNC(=O)C4[C@H]3CC[C@]12C (stereo partly drawn),> 100 µM
8,COc1cc2c[n+](C)c3c4cc5c(cc4ccc3c2cc1OC)OCO5,> 27.8 µM
9,O=c1[nH]c(C23CC4CC(CC(C4)C2)C3)cc2c1c(=O)oc1ccccc12,38.5 µM
10,CCN(CC)C(=C(C(Cl)=C(Cl)Cl)[N+](=O)[O-])N(CC)CC,> 100 µM
11,O=C1C(=O)c2c(oc(=O)c3ccccc23)-c2ccccc21,> 25 µM
12,CCOC(=O)C(C(=O)OCC)=C1NC2(c3ccccc3Nc3ccc(C)cc32)C(C#N)S1 (stereo not drawn),8.68 µM
13,CN1CCC2(CC1)SC[C@H]1C(=O)N(c3ccc(Cl)cc3)C(=O)N12,> 100 µM
14,CC(C)=CCC[C@@H](C)C1=C(O)C(O)C(C)=C2N=C(c3ccccc3)C(=O)OC21 (stereo partly drawn),> 25 µM
15,Cc1cc([C@H](C#N)c2nc3ccccc3[nH]2)nc(Cl)n1,> 100 µM
16,CC(C)(C)[Si](C)(C)O[C@@H](C(=O)OC1C=CCCC1)[C@@H](NC(=O)c1ccccc1)c1ccccc1 (stereo partly drawn),61.3 µM
17,Cc1oc2c(c1C)S(=O)(=O)C(C#N)=C(c1ccccc1)N2,> 100 µM
18,O=C1c2ccccc2C(O)(C(=O)O)C1(O)CC=C(Cl)Cl (stereo not drawn),> 125 µM
19,CC(=O)O[C@@H]1CC[C@@]2(C)C(CC[C@H]3[C@@H]4CC[C@H]([C@H](C)CCc5nc6ccc(C)cc6[nH]5)[C@@]4(C)CC[C@@H]32)C1 (stereo partly drawn),> 100 µM
20,C/C1=C/C(C)CC(C)OC(=O)C(C)NC(=O)C(Cc2ccc(O)c(I)c2)N(C)C(=O)CNC(=O)C(C)C1 (stereo not drawn),> 100 µM
21,Cc1ccc(-n2cnc3c(N)nc(N)nc32)cc1,> 100 µM
22,CC12CCC3[C@@H](CC3(C)C)C(O)(CCC1=O)C2 (stereo partly drawn),> 100 µM
23,CO[C@H]1c2cccc3cccc(c23)[C@@H]1n1[nH]c(=O)n(C(C)(C)C)c1=O,> 100 µM
24,CCCCCCCCCCCCCCCCCCNc1ccn(C2OC(COP(=O)(O)OC3CC(n4cc(F)c(=O)[nH]c4=O)OC3COP(=O)(O)OCC3OC(n4ccc(N)nc4=O)C(O)C3O)C(O)C2O)c(=O)n1 (stereo not drawn),98.2 µM
